System: Plasmodium berghei
Assay: Luciferase/luciferin-expressing antifolate-resistant parasites were used to infect a culture of HepG2 cells that were pre-incubated with compounds. Infected hepatocytes emit light due to the luciferase reaction. Assay results are presented as the percent inhibition of light emission compared to control. […]
Type: functional
Details: sporozoite; for IC90: read-out: LUCIFERASE INFECTION ASSAY - IC90
[1] = read-out: LUCIFERASE INFECTION ASSAY - IC50

Row | SMILES | IC50 [1] [µM] | IC90 [µM] | other results
1 | CCC(C)NC(=O)c1c(NC(=O)c2ccc(Cl)cc2)nc2ccc(C)cn12 (configuration not stated) | 2.58 | 3.02 | 
2 | Cn1cc(CN2CC=C(c3ccccc3)CC2)c2ccccc21 |  | > 10 | IC50 (HEPG2TOX_HILL_SLOPE 7.11, HEPG2TOX_R_SQUARED 0.283, PBLUC_HILL_SLOPE 12.5, PBLUC_R_SQUARED 0.246, read-out: LUCIFERASE INFECTION ASSAY - IC50): 9.52 µM
3 | Clc1ccc(-c2cn3c(-c4ccccc4)cnc3cn2)c(Cl)c1 |  | 3.69 | IC50 (HEPG2TOX_HILL_SLOPE 1.88, HEPG2TOX_R_SQUARED 0.996, PBLUC_HILL_SLOPE 1.95, PBLUC_R_SQUARED 0.542, read-out: LUCIFERASE INFECTION ASSAY - IC50): 1.19 µM
4 | CC1CCc2nc3ccccc3c(C(=O)OCCOc3ccccc3Cl)c2C1 (configuration not stated) | > 10 | > 10 | 
5 | CCCn1c(NC(=O)c2cccnc2SC)nc2ccccc21 |  | > 10 | IC50 (PBLUC_HILL_SLOPE 14.8, PBLUC_R_SQUARED 0.146, read-out: LUCIFERASE INFECTION ASSAY - IC50): 9.22 µM
6 | O=C(Nc1nonc1-c1ccc(F)cc1)c1ccc(Br)cc1 |  | 3.92 | IC50 (HEPG2TOX_HILL_SLOPE 9.79, HEPG2TOX_R_SQUARED 0.939, PBLUC_HILL_SLOPE 11.2, PBLUC_R_SQUARED 0.415, read-out: LUCIFERASE INFECTION ASSAY - IC50): 3.22 µM
7 | Cc1ccc(C(=O)/C=C/C(=O)c2ccc(C)cc2)cc1 |  | > 10 | IC50 (FFLUC_HILL_SLOPE 1.4, FFLUC_R_SQUARED 0.731, read-out: LUCIFERASE INFECTION ASSAY - IC50): > 10 µM
8 | O=c1c2ccccc2c(=O)c2oc3cc4oc5c(=O)c6ccccc6c(=O)c5[nH]c4cc3[nH]c12 |  | 4 | IC50 (FFLUC_HILL_SLOPE 12.7, FFLUC_R_SQUARED 0.208, HEPG2TOX_HILL_SLOPE 4.53, HEPG2TOX_R_SQUARED 0.902, PBLUC_HILL_SLOPE 7.46, PBLUC_R_SQUARED 0.34, read-out: LUCIFERASE INFECTION ASSAY - IC50): 2.98 µM
9 | CCC(CC)CN1CCC2(CC1)C(=O)N(Cc1ccc(OC)cc1)C(=O)N2CC(C)C | > 7.68 | > 7.68 | 
10 | C/C(=N\NC(=S)Nc1cccc(Cl)c1C)c1cccc(C(F)(F)F)c1 |  | > 10 | IC50 (HEPG2TOX_HILL_SLOPE 2.50, 1.90, HEPG2TOX_R_SQUARED 0.489, 0.932, PBLUC_HILL_SLOPE 2.58, PBLUC_R_SQUARED 0.215, read-out: LUCIFERASE INFECTION ASSAY - IC50): 7.21 µM
11 | NC(Cc1ccc(Cl)cc1)c1csc(Nc2nncc3ccccc23)n1 (configuration not stated) |  | > 8.64 | IC50 (PBLUC_HILL_SLOPE 1.01, PBLUC_R_SQUARED 0.151, read-out: LUCIFERASE INFECTION ASSAY - IC50): 5.44 µM
12 | c1ccc(CCNc2nn3c(-c4ccsc4)cnc3s2)nc1 | > 10.1 | > 10.1 | 
13 | CC(C)N1C(=O)/C(=N\NC(=S)NC2CCCCC2)c2ccccc21 |  | > 10 | IC50 (FFLUC_HILL_SLOPE 3.74, FFLUC_R_SQUARED 0.413, HEPG2TOX_HILL_SLOPE 6.6, HEPG2TOX_R_SQUARED 0.125, read-out: LUCIFERASE INFECTION ASSAY - IC50): > 10 µM
14 | Cc1ccc(N2C(=O)c3ccccc3C(C=NNc3ccc(S(=O)(=O)N4CCCC4)cc3[N+](=O)[O-])C2=O)cc1 (configuration not stated) |  | > 10 | IC50 (FFLUC_HILL_SLOPE 3.06, FFLUC_R_SQUARED 0.613, HEPG2TOX_HILL_SLOPE 13, HEPG2TOX_R_SQUARED 0.977, read-out: LUCIFERASE INFECTION ASSAY - IC50): > 10 µM
15 | Cc1noc(C)c1COc1ccc(C(=O)OCC(=O)NCCC2=CCCCC2)cc1 |  | 8.4 | IC50 (HEPG2TOX_HILL_SLOPE 9.34, HEPG2TOX_R_SQUARED 0.702, PBLUC_HILL_SLOPE 3.46, PBLUC_R_SQUARED 0.677, read-out: LUCIFERASE INFECTION ASSAY - IC50): 4.45 µM
16 | COCCCN1C(=O)N(Cc2ccccc2)C(=O)C12CCN(Cc1cccc(-c3ccco3)c1)CC2 |  | > 6.77 | IC50 (PBLUC_HILL_SLOPE 3.26, PBLUC_R_SQUARED 0.648, read-out: LUCIFERASE INFECTION ASSAY - IC50): 4.58 µM
17 | Cc1cnc(NC(=O)c2ccc(N(C)C3CCCCC3)cc2)s1 |  | 0.327 | IC50 (HEPG2TOX_HILL_SLOPE 7.67, HEPG2TOX_R_SQUARED 0.65, PBLUC_HILL_SLOPE 1.69, PBLUC_R_SQUARED 0.349, read-out: LUCIFERASE INFECTION ASSAY - IC50): 0.0892 µM
18 | CCc1ccc(NC(=O)Cc2nc(-c3ccc4c(c3)CCCN4S(C)(=O)=O)cs2)cc1 |  | > 10 | IC50 (HEPG2TOX_HILL_SLOPE 9.08, HEPG2TOX_R_SQUARED 0.0527, PBLUC_HILL_SLOPE 1.74, PBLUC_R_SQUARED 0.25, read-out: LUCIFERASE INFECTION ASSAY - IC50): 5.76 µM
19 | O=C(Nc1ccc2c(c1)OC1(CCCCC1)O2)c1ccc[nH]c1=S |  | 4.02 | IC50 (PBLUC_HILL_SLOPE 0.703, PBLUC_R_SQUARED 0.661, read-out: LUCIFERASE INFECTION ASSAY - IC50): 0.176 µM
20 | COc1ccc(CNC(=O)N2CCc3nc(NCc4cccc(Oc5ccccc5)c4)ncc3C2)cc1 | > 6.66 | > 6.66 | 
21 | Cc1ccc(S(=O)(=O)c2c(C)nn(C(C)(C)C)c2OC(=O)c2cccc([N+](=O)[O-])c2)cc1 | > 10 | > 10 | 

Row | SMILES | IC50 [1] [µM] | IC90 [µM] | other results
22 | O=S(=O)(NC1CCN(c2nn3cc(-c4ccccc4)nc3s2)CC1)c1cccs1 |  | 3.14 | IC50 (HEPG2TOX_HILL_SLOPE 6.79, HEPG2TOX_R_SQUARED 0.144, PBLUC_HILL_SLOPE 1.24, PBLUC_R_SQUARED 0.735, read-out: LUCIFERASE INFECTION ASSAY - IC50): 0.534 µM
23 | Cc1nn(-c2ccc(C(F)(F)F)cn2)c2ncc(CCCO)cc12 |  | > 10 | IC50 (HEPG2TOX_HILL_SLOPE 0.869, HEPG2TOX_R_SQUARED 0.0884, read-out: LUCIFERASE INFECTION ASSAY - IC50): > 10 µM
24 | Cc1ccc2c(Cl)cc(Cl)c(OCC(=O)NC3CCCCC3C)c2n1 (configuration not stated) | > 10 | > 10 | 
25 | Cc1[nH]c2ccccc2c1CC(=O)N1CCc2c(c(C(=O)NCc3cccnc3)nn2CC(C)C)C1 |  | 6.57 | IC50 (PBLUC_HILL_SLOPE 12.1, PBLUC_R_SQUARED 0.505, read-out: LUCIFERASE INFECTION ASSAY - IC50): 5.48 µM
26 | Cc1ccc(-c2cs/c(=N\c3ccc(C)c(C)c3)n2/N=C/c2ccc(O)cc2O)cc1 | > 10 | > 10 | 
27 | CC1=CC(=O)N(c2cc(Cl)cc(Cl)c2)C1=O | > 12.9 | > 12.9 | 
28 | COc1ccc2[nH]c3c(NCCC4=CCCCC4)ncnc3c2c1 |  | 5.19 | IC50 (HEPG2TOX_HILL_SLOPE 2.01, HEPG2TOX_R_SQUARED 0.344, PBLUC_HILL_SLOPE 1.69, PBLUC_R_SQUARED 0.738, read-out: LUCIFERASE INFECTION ASSAY - IC50): 1.42 µM
29 | CC(C)(C)NCc1cc(Cl)ccc1OCc1ccccc1F |  | > 9.21 | IC50 (PBLUC_HILL_SLOPE 1.1, PBLUC_R_SQUARED 0.254, read-out: LUCIFERASE INFECTION ASSAY - IC50): 4.67 µM
30 | CCOC(=O)c1oc2ccccc2c1CSc1nc2ccccc2c(=O)n1Cc1ccccc1 |  | 4.13 | IC50 (FFLUC_HILL_SLOPE 1.98, FFLUC_R_SQUARED 0.579, HEPG2TOX_HILL_SLOPE 1.74, HEPG2TOX_R_SQUARED 0.914, PBLUC_HILL_SLOPE 15.9, PBLUC_R_SQUARED 0.125, read-out: LUCIFERASE INFECTION ASSAY - IC50): 3.6 µM
31 | Oc1c(Cl)cc(Cl)cc1/C=C/c1ccc2cccc(O)c2n1 |  | 7.78 | IC50 (HEPG2TOX_HILL_SLOPE 10.3, HEPG2TOX_R_SQUARED 0.191, PBLUC_HILL_SLOPE 3.13, PBLUC_R_SQUARED 0.48, read-out: LUCIFERASE INFECTION ASSAY - IC50): 3.86 µM
32 | Cc1ccc(C2c3c(-c4cc(C)cc(C)c4O)n[nH]c3C(=O)N2CCCO)cc1 (configuration not stated) |  | > 8.43 | IC50 (HEPG2TOX_HILL_SLOPE 0.468, HEPG2TOX_R_SQUARED 0.76, PBLUC_HILL_SLOPE 1.88, PBLUC_R_SQUARED 0.575, read-out: LUCIFERASE INFECTION ASSAY - IC50): 5.49 µM
33 | COC(=O)C1=C(C)NC(C)=C(C(=O)OC)C1c1cc(NC(=O)c2cccc(OC(F)F)c2)ccc1OC(F)F |  | 8.9 | IC50 (PBLUC_HILL_SLOPE 3.17, PBLUC_R_SQUARED 0.755, read-out: LUCIFERASE INFECTION ASSAY - IC50): 4.45 µM
34 | Cc1ccc(C(C)(C)CC(C)NCc2ccc(Cl)cc2)o1 (configuration not stated) | > 10.8 | > 10.8 | 
35 | O=C(CCn1ccc2ccccc21)NC(Cc1ncc[nH]1)c1ccccc1 (configuration not stated) |  | 4.79 | IC50 (PBLUC_HILL_SLOPE 8.72, PBLUC_R_SQUARED 0.12, read-out: LUCIFERASE INFECTION ASSAY - IC50): 3.72 µM
36 | Cc1ccc(NC(=O)/C=C/c2c(C)nn(CC(C)C)c2Cl)cc1 |  | > 10 | IC50 (HEPG2TOX_HILL_SLOPE 7.42, HEPG2TOX_R_SQUARED 0.403, read-out: LUCIFERASE INFECTION ASSAY - IC50): > 10 µM
37 | CCNC(=O)C1CCCN(CCOc2ccc(Cl)cc2)CC1 (configuration not stated) | > 10.2 | > 10.2 | 
38 | COc1ccc(C(=O)NCC#Cc2cccc(C(F)(F)F)c2)cn1 |  | > 10 | IC50 (FFLUC_HILL_SLOPE 300, FFLUC_R_SQUARED 0.355, read-out: LUCIFERASE INFECTION ASSAY - IC50): > 10 µM
39 | CCOC(=O)C1CCCN(C(=O)Cc2cccc3ccccc23)CC1 (configuration not stated) | > 9.72 | > 9.72 | 
40 | O=C1OC(c2ccccc2)=N/C1=C\c1ccc([N+](=O)[O-])s1 | > 11 | > 11 | 
41 | Clc1ccc(SCc2cc(N3CCCC3)nc(-c3ccccn3)n2)cc1 |  | 2.94 | IC50 (HEPG2TOX_HILL_SLOPE 2.23, HEPG2TOX_R_SQUARED 0.944, PBLUC_HILL_SLOPE 20.5, PBLUC_R_SQUARED 0.394, read-out: LUCIFERASE INFECTION ASSAY - IC50): 2.64 µM

Reference: ChEMBL document CHEMBL4483862, “Open-source discovery of chemical leads for next-generation chemoprotective antimalarials” (2018)
